Measured values reported in ChEMBL document CHEMBL1201862, “PubChem BioAssay data set” (2004).
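Test compounds were applied to cells in 96-well plates for 48 hours at 5 doses. At the GI50, growth is halved.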 Activity calls are given as the source filed them. Rule as the data show it: active = GI50 up to about 1.1 µM and inactive = higher.

Columns and labels:
Assay in all cases: DTP human tumour cell line panel, 48 h
[1] = tested on: U-251
[2] = tested on: HT-29
[3] = tested on: A498
[4] = tested on: OVCAR-8
[5] = tested on: NCI-H226
[6] = tested on: SK-MEL-28
[7] = tested on: SK-OV-3
[8] = tested on: CAKI-1
[9] = tested on: NCI-H23
[10] = tested on: UO-31
[11] = tested on: SK-MEL-5
[12] = tested on: IGROV-1
[13] = tested on: UACC-257
[14] = tested on: NCI-H522
[15] = tested on: NCI-H460
[16] = tested on: COLO 205
[17] = tested on: 786-0
[18] = tested on: SW-620
[19] = tested on: NCI/ADR-RES
[20] = tested on: PC-3

Measured: GI50

CCN(CC)CCSc1c2ccccc2nc2c(OC)ccc(OC)c12
inactive: [1] 30.3 µM | [2] 4.59 µM | [3] 13.3 µM | [4] 2.43 µM | [5] 29.5 µM | [6] 2.94 µM | [7] 36 µM | [8] 3.1 µM | [9] 14.6 µM | [10] 12.8 µM | [11] 4.66 µM | [12] 6.32 µM | [13] 3.78 µM | [14] 3.26 µM | [15] 10.8 µM | [16] 2.72 µM | [17] 4.13 µM | [18] 2.08 µM

Cc1ccc(S(=O)(=O)NNCNC(=O)c2ccccc2)cc1
inactive: [1] > 100 µM | [2] 61.2 µM | [4] > 100 µM | [19] 54.6 µM | [5] > 100 µM | [20] > 100 µM | [6] > 100 µM | [7] > 100 µM | [8] > 100 µM | [9] > 100 µM | [10] 82.8 µM | [11] > 100 µM | [12] > 100 µM | [13] > 100 µM | [14] > 100 µM | [16] > 100 µM | [17] > 100 µM | [18] 94.8 µM

Cc1cc2nc(N3C(=O)/C(=C/c4cccc([N+](=O)[O-])c4)N=C3c3ccccc3)sc2cc1C
inactive: [1] 22.8 µM | [2] 27.5 µM | [4] 21.4 µM | [19] 28.4 µM | [20] 17.4 µM | [6] 57.8 µM | [7] 67.8 µM | [8] 52 µM | [10] 32.5 µM | [11] 30.1 µM | [12] 12.5 µM | [13] 42.6 µM | [15] 29.2 µM | [16] 36.3 µM | [17] 40.3 µM | [18] 27 µM

CSc1nc(NC2OCC(OC(C)=O)C(OC(C)=O)C2OC(C)=O)c(/N=C\C=N\c2c(NC3OCC(OC(C)=O)C(OC(C)=O)C3OC(C)=O)nc(SC)[nH]c2=O)c(=O)[nH]1 (stereo not drawn)
inactive: [1] 56.4 µM | [2] > 100 µM | [3] > 100 µM | [4] 46.7 µM | [19] 34.3 µM | [5] > 52.8 µM | [6] > 100 µM | [7] 28.9 µM | [8] > 100 µM | [9] > 91 µM | [10] > 83 µM | [11] > 100 µM | [12] > 93.1 µM | [13] > 100 µM | [14] > 61.2 µM | [15] > 100 µM | [16] > 100 µM | [17] 30.1 µM | [18] > 100 µM

Clc1cc2nn(C3CCCCO3)nc2cc1Cl (stereo not drawn)
inactive: [1] > 100 µM | [2] > 100 µM | [4] > 100 µM | [19] > 100 µM | [5] > 100 µM | [20] > 100 µM | [7] > 100 µM | [8] > 100 µM | [9] > 100 µM | [10] > 100 µM | [11] > 100 µM | [12] > 100 µM | [13] > 100 µM | [14] > 100 µM | [15] > 100 µM | [16] > 100 µM | [17] > 100 µM
